How the values were obtained:
Type in all cases: physicochemical
[1] = Fluorescence life time in ethanol; conditions: for Fluorescence life time (τFl): for Pheo 16 the longer component of a double exponential decay; for Fluorescence life time (τFl), second decay component: double exponential decay
[2] = Singlet oxygen quantum yield (photoinduced singlet oxygen) in ethanol; conditions: for singlet oxygen quantum yield (ΦA): in ethanol, before light exposure
Excerpt: The quantum yield of the photoinduced singlet oxygen of Pheo (0.52) decreases to 0.05 for Pheo 16 (see Table 1).
(§1) They equal to the parameters of the free Pheo.

[3] = Fluorescence intensity in ethanol; conditions: versus fluorescence intensity of Pheo in ethanol
Excerpt: The fluorescence spectra of al samples show nearly the same shape. However, the fluorescence intensity of Pheo 16 in ethanol is 50 times smaller than the fluorescence intensity of Pheo in ethanol (see FIG. 2).

[4] = Release of Pheo from dendrimer complex by light exposure (MALDI); conditions: after 30 min light exposure with UV lamp (~1 kJ)
Excerpt: as §1
However, this process occurs only in the presence of oxygen. Presumably, the primary generated singlet oxygen caused the separation of the bonds between the dye molecules and the dendrimer.

Row | Molecule | Fluorescence life time (τFl) [1] [ns] | singlet oxygen quantum yield (ΦA) [2] | Fluorescence life time (τFl) ([1]; listed as Pheo) [ns] | Fluorescence life time (τFl), second decay component ([1]; relation of amplitudes 2 to 1) [ns] | Fluorescence life time (τFl), second decay component ([1]; relation of amplitudes 2 to 1, listed as Pheo-16-dendrimer complex) [ns] | fluorescence lifetime, first component of double exponential decay ([1]; relation of amplitudes 2 to 1) [ns] | singlet oxygen quantum yield after light exposure ([2]; after light exposure of a 3 ml sample with 40 J and 514 nm) | fluorescence intensity relative to Pheo [3] [times smaller] | release of Pheo on light exposure [4]
1 | C=Cc1c(C)c2cc3nc(c4c5[nH]c(cc6nc(cc1[nH]2)C(C)=C6CC)c(C)c5C(=O)[C@@H]4C(=O)OC)[C@@H](CCC(=O)ON1C(=O)CCC1=O)[C@@H]3C [Pheo-succinimide ester, pheophorbide a-succinimide ester] | 6.1 ± 0.3 | 0.55 | – | – | – | – | – | – | –
2 | Pheophorbide a [reference compound] | 5.7 ± 0.2 | 0.52 | 5.7 | – | – | – | – | – | –
3 | Pheophorbide a-diaminobutane-polypropylene-imine Dendrimer 3.0 Complex [Pheo 16] | 4.9 ± 0.3 | 0.05 | – | 0.5 | 0.5 ± 0.3 | 4.5 | 0.47 | 50 | release of Pheo
